What is called melting point is the temperature of the solid-liquid transition.

SMILES strings stand for the structures.

In data set [1] the target is T1, small-conductance Ca2+-activated K+ channel, subtype 3 (SK3) (Homo sapiens, UniProt Q9UGI6).
T1 construct: expressed in transfected cells; host or cells: HEK293 cells stably transfected with pNS3_hSK3
Kind of data set: Whole-cell patch-clamp recording of SK3 current in HEK293 cells stably expressing hSK3. In kind it is cell-based. The following applies: baseline current at -20 mV, 300 nM free Ca2+. On the procedure: The ionic current through small-conductance Ca^2+-activated K^+ channels (SK channels, subtype 3) is recorded using the whole-cell configuration of the patch-clamp technique.
The small-conductance Ca^2+-activated K^+ channel, subtype 3 (SK3) was cloned from human skeletal muscle and stably expressed in HEK293 cells.
Human SK3 (hSK3) was sub-cloned into the expression vector pNS3n, a customized vector derived from pcDNA3 (InVitrogen) to give the plasmid construct pNS3_hSK3. HEK293 tissue culture cells were grown in DMEM (Dulbecco's Modified Eagle Medium) supplemented with 10% FCS (foetal calf serum) at 37° C. in 5% CO2. […]
Experiments are carried out on one of several patch-clamp set-ups. […] Data are stored directly on the hard-disk and analysed by IGOR software (Wavemetrics, Lake Oswega, Oreg., USA).
The whole-cell configuration of the patch-clamp technique is applied. […] Cell capacitance is electronically compensated and the resistance between the pipette and the cell interior (the series resistance, Rs) is measured and compensated for. […]
The intracellular (pipette) solution has the following composition (in mM): 105 KCl, 45 KOH, 10 EGTA, 1.21 MgCl2, 7.63 CaCl2, and 10 HEPES (pH=7.2 with HCl). The calculated free concentration of Ca^2+ in this solution is 300 nM and that of Mg^2+ is 1 mM. […]
Active compounds are quantified by calculating the change in baseline current at −20 mV. […]
(In general: In patch-clamp work, channel activity is measured electrically.)

On to `Cc1cc(C)n(-c2nc(NC3CCCCC3)c3ccccc3n2)n1` [Compound A8, Cyclohexyl-[2-(3,5-dimethyl-pyrazol-1-yl)-quinazolin-4-yl]-amine], for which, in data set [1], the “SC100 (Stimulating Concentration required for increasing the baseline current by 100%)” value came out at 0.035 µM. `Cc1cc(C)n(-c2nc(Nc3ccccc3)c3ccccc3n2)n1` [Compound B1, [2-(3,5-Dimethyl-pyrazol-1-yl)-quinazolin-4-yl]-phenyl-amine]: the melting point was 262.4 to 265.3 °C.

For the origin of these results see US8252806B2, “Potassium channel modulating agents and their medical use” (Neurosearch A/S, priority 2005, dated 2012).
